Assay results as given in article PMC12163822, “Synthesis and Pharmacological Characterization of a Novel Cannabinoid Receptor 1 Antagonist” (ACS Omega, 2025).
“Also recorded” adds a separate entry of the source.

Experiments:
human CB2 receptor = molecular target: T1, human CB2 receptor (Homo sapiens, UniProt P34972); test: [3H]CP55,940 inhibition curves in membranes from CHO cells overexpressing human CB2; format: binding
T1 construct: purchased Sigma-Aldrich; host or cells: CHO cells
Procedure: Membrane homogenates from CHO cells overexpressing human CB1 and CB2 receptors, as well as matched wild-type cells, were used to test newly synthesized compounds and were acquired from Sigma-Aldrich (St Louis, MO, USA).
(§1) To stop the reaction, an ice-cold wash buffer (50 mM Tris–HCl and 0.5% BSA, pH 7.4) was added. Then, the membranes were retained by vacuum filtration to a Whatman GF/C glass microfiber filter (Sigma-Aldrich, St. Louis, MO, USA) and the free radioligand was discarded. Filters with the bound radioligand were transferred to vials containing 5 mL of Ultima Gold cocktail (Revvity, Boston, MA, USA) and measured with a Packard Tri-Carb 2200CA liquid scintillation counter (Revvity, Boston, MA, USA).
A concentration of 0.02 mg/mL of commercial WT (as control) and CB1 and CB2 overexpressing CHO cells were used, and the same protocol described above was followed. Rat spleen homogenates were also used at a concentration of 0.1 mg/mL as a further characterization of binding to the CB2 receptor, given the high expression of this receptor in this tissue and the practical lack of CB1 in it.

CB2 receptor = molecular target: T2, CB2 receptor (Rattus norvegicus, UniProt Q9QZN9); test: [3H]CP55,940 inhibition curves in rat spleen membrane homogenates (CB2-enriched); format: binding, Sprague-Dawley rat
T2 construct: from tissue; host or cells: Sprague-Dawley rat spleen
T2 sequence (Q9QZN9 1-360): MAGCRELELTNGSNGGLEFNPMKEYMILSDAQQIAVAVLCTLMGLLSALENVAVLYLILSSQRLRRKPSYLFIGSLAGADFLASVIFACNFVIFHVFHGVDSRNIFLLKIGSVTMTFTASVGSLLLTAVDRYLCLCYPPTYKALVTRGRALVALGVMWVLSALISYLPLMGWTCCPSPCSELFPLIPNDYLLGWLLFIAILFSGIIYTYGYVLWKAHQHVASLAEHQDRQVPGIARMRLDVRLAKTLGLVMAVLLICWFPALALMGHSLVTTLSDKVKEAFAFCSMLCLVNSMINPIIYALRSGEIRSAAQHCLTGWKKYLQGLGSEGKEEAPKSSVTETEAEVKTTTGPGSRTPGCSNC
Procedure: Sprague–Dawley rats (n = 5) were anesthetized and sacrificed by decapitation. Spleens and brains were then quickly removed by dissection at 4 °C, and in the case of the brain tissue, the cortex was dissected for the preparation of the membrane homogenates. For this procedure, spleen and cortex samples were homogenized using a Teflon-glass grinder (15 up-and-down strokes at 800 rpm) in 30 volumes of homogenization buffer (1 mM EGTA, 3 mM MgCl2, 50 mM Tris–HCl; pH 7.4) supplemented with […], at 4 °C. The obtained homogenates were centrifuged for 5 min at 1500 rpm. Pellets were removed, and supernatants were centrifuged again for 15 min at 14,000 rpm. For washing, the obtained pellets were resuspended in a buffer and centrifuged again, and the supernatant was removed. The resulting aliquots were stored at −80 °C until use.
as §1, with “USA). […]” for “USA).”

human CB1 receptor = molecular target: T3, human CB1 receptor (Homo sapiens, UniProt P21554); test: [35S]GTPγS functional binding assay in CHO cells overexpressing human CB1; format: biochemical; details: CB1 overexpressing CHO membranes, result in words
T3 construct: purchased Sigma-Aldrich; host or cells: CHO cells
Procedure: (§2) The compound with the best affinity was also tested using functional [^35S]-GTPγS binding assays to characterize its activity as an agonist or antagonist/inverse agonist. A protein concentration of 0.1 mg/mL of rat cortex homogenates and a protein concentration of 0.02 mg/mL of commercial CB1 overexpressing CHO cells were used for these assays, suspended in a reaction buffer (Tris–HCl 50 mM, EGTA 1 mM, MgCl2 3 mM, NaCl 100 mM, 0.5% BSA; pH 7.4). The target compound was used in concentrations ranging from 10^–11 to 10^–4 M and incubated for 2 h at 37 °C with agitation in the presence of 0.5 nM [^35S]-GTPγS and 50 μM GDP. Basal coupling of [^35S]-GTPγS to Gi/o proteins was determined by incubating the membrane aliquots with the radioligand in the absence of the target compound. To define nonspecific binding, 10 μM of unlabeled GTPγS was added to the incubation.

CB1 receptor [1] = molecular target: T4, CB1 receptor (Mus musculus, UniProt P47746); test: Functional [35S]GTPγS autoradiography in mouse brain slices; format: biochemical, Swiss mice; details: for [35S]GTPγS binding, Stimulation (% over basal), CP55,940 + UVI3502 / [35S]GTPγS binding, Stimulation (% over basal): mouse; for [35S]GTPγS binding, Stimulation (% over basal), CP55,940 + UVI3502: CP55,940 and UVI3502 both at 10 µM; for [35S]GTPγS binding, Stimulation (% over basal): compound alone 10 µM
T4 construct: fresh frozen sections from brain samples from wild-type; from tissue; host or cells: Swiss mouse brain sections
Procedure: All brain sections were air-dried for 30 min and then immersed in Coplin jars for preincubation (4 times, 15 min each time) in an HEPES-based buffer (50 mM HEPES, 100 mM NaCl, 3 mM MgCl2, 0.2 mM EGTA, 0.5% BSA; pH 7.4) at 30 °C. The objective of this preincubation was the removal of endogenous ligands. […] Basal [^35S]-GTPγS binding was defined in the absence of the agonists in two consecutive slices. To define nonspecific binding, 10 μM of unlabeled GTPγS was added to the incubation in another section. Following incubation, slices were twice washed in an ice-cold 50 mM HEPES buffer (pH 7.4), dried, and exposed for 48 h to β-radiation sensitive film with a set of [^14C] standards calibrated for [^35S]. Calibrated films were scanned and quantified using Fiji software (Fiji, Bethesda, […], USA). The signal corresponding to nonspecific binding was previously subtracted from the basal and agonist-stimulated binding. Then, the data was expressed as the percentage of stimulation over basal following the formula: ([^35S]-GTPγS agonist-stimulated binding) × 100/([^35S]-GTPγS basal binding)-100.

CB1 receptor [2] = molecular target: CB1 receptor (Rattus norvegicus, UniProt P20272); test: [35S]GTPγS functional binding assay in rat cortex membrane homogenates; format: biochemical; parameters: functional assays in membrane homogenates from the rat cortical tissue; from tissue; host or cells: Sprague-Dawley rat brain cortex
Procedure: as §2

[3] = nucleus basalis magnocellularis

Chain of CB1 receptor (Rattus norvegicus, UniProt P20272) (P20272 whole entry): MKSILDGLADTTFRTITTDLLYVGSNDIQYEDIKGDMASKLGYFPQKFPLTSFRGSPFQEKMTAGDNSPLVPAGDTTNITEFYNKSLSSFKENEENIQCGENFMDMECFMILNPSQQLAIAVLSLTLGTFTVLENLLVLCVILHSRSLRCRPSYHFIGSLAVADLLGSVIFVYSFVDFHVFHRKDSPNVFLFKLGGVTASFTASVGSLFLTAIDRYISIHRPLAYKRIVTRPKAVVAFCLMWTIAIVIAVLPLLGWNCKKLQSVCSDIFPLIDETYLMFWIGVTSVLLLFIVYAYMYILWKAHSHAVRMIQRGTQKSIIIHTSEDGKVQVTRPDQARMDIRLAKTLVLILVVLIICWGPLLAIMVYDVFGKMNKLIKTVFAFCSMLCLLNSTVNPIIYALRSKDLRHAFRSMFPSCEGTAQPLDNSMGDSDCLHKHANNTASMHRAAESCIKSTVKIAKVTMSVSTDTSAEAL
T4 sequence (P47746 whole entry): as the sequence (P20272 whole entry) above, with E95D counted along it
T1 sequence (P34972 whole entry): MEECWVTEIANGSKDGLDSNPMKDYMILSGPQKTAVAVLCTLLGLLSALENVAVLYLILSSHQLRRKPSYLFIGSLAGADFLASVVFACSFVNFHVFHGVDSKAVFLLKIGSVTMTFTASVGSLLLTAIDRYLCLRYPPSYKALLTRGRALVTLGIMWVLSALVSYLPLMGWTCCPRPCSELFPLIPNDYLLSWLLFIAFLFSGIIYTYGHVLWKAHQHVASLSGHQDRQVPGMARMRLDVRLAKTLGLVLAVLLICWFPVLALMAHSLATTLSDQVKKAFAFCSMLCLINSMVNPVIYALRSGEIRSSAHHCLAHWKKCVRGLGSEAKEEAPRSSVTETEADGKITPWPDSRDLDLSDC
T3 sequence (P21554 whole entry): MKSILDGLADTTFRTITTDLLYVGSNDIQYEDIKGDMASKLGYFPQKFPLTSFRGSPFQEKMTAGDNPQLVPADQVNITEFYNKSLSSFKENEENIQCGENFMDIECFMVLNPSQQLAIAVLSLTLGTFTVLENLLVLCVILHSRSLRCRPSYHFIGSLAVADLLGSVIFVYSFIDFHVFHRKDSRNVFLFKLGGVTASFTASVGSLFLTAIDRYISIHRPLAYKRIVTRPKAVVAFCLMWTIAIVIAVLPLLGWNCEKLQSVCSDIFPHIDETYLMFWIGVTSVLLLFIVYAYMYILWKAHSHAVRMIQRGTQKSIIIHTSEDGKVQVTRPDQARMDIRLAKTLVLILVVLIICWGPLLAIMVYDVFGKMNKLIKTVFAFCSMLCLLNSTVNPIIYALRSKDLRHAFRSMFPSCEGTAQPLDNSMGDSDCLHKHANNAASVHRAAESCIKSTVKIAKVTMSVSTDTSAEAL

## CCOC(=O)/C=C1\C(=O)Nc2ccc(C)cc2-c2c1c1cc(OC)ccc1n2C(=O)OCC [UVI3502]
Human CB2 receptor
  IC50: 16.2 ± 0.131 µM
Human CB2 receptor; CB2 overexpressing CHO membranes
  maximum inhibition of [3H]CP55,940 binding: approximately 83%
CB2 receptor
  IC50: 10.23 ± 0.0178 µM
CB2 receptor; rat spleen membrane homogenates
  maximum inhibition of [3H]CP55,940 binding: ~61%
Human CB1 receptor
  stimulation of [35S]GTPγS binding (coupling of CB1 to Gi/o proteins): does not; also recorded: did not stimulate the coupling of CB1 receptors to Gi/o proteins
CB1 receptor [1]; mouse brain slices, 10 µM, result in words
  activity on CP55,940-evoked [35S]GTPγS stimulation: acts as an antagonist
CB1 receptor [1]; amygdala
  [35S]GTPγS binding, Stimulation (% over basal), CP55,940 + UVI3502: 0 ± 78 % over basal
  [35S]GTPγS binding, Stimulation (% over basal): -16 ± 51 % over basal
CB1 receptor [1]; cerebellum (gray matter)
  [35S]GTPγS binding, Stimulation (% over basal), CP55,940 + UVI3502: 6 ± 23 % over basal
  [35S]GTPγS binding, Stimulation (% over basal): -43 ± 9 % over basal
CB1 receptor [1]; cortex
  [35S]GTPγS binding, Stimulation (% over basal), CP55,940 + UVI3502: -51 ± 11 % over basal
  [35S]GTPγS binding, Stimulation (% over basal): -55 ± 9 % over basal
CB1 receptor [1]; globus pallidus
  [35S]GTPγS binding, Stimulation (% over basal), CP55,940 + UVI3502: 91 ± 104 % over basal
  [35S]GTPγS binding, Stimulation (% over basal): -46 ± 29 % over basal
CB1 receptor [1]; hippocampus dorsal
  [35S]GTPγS binding, Stimulation (% over basal), CP55,940 + UVI3502: -36 ± 8 % over basal
  [35S]GTPγS binding, Stimulation (% over basal): -38 ± 12 % over basal
CB1 receptor [1]; [3]
  [35S]GTPγS binding, Stimulation (% over basal), CP55,940 + UVI3502: -30 ± 37 % over basal
  [35S]GTPγS binding, Stimulation (% over basal): -20 ± 65 % over basal
CB1 receptor [1]; striatum
  [35S]GTPγS binding, Stimulation (% over basal), CP55,940 + UVI3502: -52 ± 13 % over basal
  [35S]GTPγS binding, Stimulation (% over basal): -52 ± 18 % over basal
CB1 receptor [1]; substantia nigra
  [35S]GTPγS binding, Stimulation (% over basal), CP55,940 + UVI3502: 181 ± 128 % over basal
  [35S]GTPγS binding, Stimulation (% over basal): -58 ± 11 % over basal
CB1 receptor [2]; rat cortex membrane homogenates, result in words
  stimulation of [35S]GTPγS binding (coupling of CB1 to Gi/o proteins): does not; also recorded: did not stimulate the coupling of CB1 receptors to Gi/o proteins
CB1 receptor [2]; slight decrease of baseline [35S]GTPγS binding, rat brain cortex membrane homogenates
  EC50: 0.00406 ± 0.00327 µM
